*1 amine or outer side, *2 acyl side, *3 side chain or, on linkers, in order; H or OH if unused. Where a SMILES comes first, the peptide text is derived from it. Side-chain parts run from the residue outwards. [ ]: non-standard residue; d: D form. The star is where a group is joined. C16 diacid = O=C(O)CCCCCCCCCCCCCCC(=O)*; γGlu = O=C(O)[C@H](CCC(=O)[*:2])N[*:1]; Aib = CC(C)(N)C(=O)O
What was measured:
[1] = target: T1, human CRF2a receptor (Homo sapiens, UniProt Q13324); experiment: Activity at human CRF2a receptor, cAMP functional assay in TeloHEAC cells; assay type: cell-based; conditions: TeloHEAC cells stably expressing human CRF2a receptor, relative to urocortin 2 (100 nM = 100%)
T1 construct: expressed in transfected cells; host or cells: TeloHEAC cells
T1 sequence (Q13324 1-411): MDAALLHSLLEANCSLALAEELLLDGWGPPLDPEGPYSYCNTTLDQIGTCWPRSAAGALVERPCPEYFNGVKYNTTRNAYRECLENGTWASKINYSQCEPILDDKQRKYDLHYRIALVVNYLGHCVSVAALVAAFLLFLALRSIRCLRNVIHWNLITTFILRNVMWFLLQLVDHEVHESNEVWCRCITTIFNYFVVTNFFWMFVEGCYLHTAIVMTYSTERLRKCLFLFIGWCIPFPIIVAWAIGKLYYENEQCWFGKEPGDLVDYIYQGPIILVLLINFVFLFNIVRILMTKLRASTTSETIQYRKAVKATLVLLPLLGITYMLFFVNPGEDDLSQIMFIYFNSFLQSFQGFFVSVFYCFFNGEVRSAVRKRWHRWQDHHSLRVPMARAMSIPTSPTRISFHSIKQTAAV
Procedure, shortened: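 TeloHEAC cells stably expressing human CRF2a (10000 cells/well) were treated with 16-point 1:2 compound dilutions in HBSS/20 mM HEPES with IBMX for 30 min at 37° C. cAMP was read by HTRF (665/620 nm ratio). EC50 was the concentration giving 50% activation, with 100 nM urocortin 2 set as 100%.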

[2] = target: T2, CFR1R receptor (Homo sapiens, UniProt P34998); experiment: Activity at anti-target CFR1R receptor, cAMP assay in CRF1R-overexpression CHO-K1 cells; assay type: cell-based; conditions: 100% = Sauvagine at 100 nM
T2 construct: host or cells: CHO-K1 (clone 2)
T2 sequence (P34998 24-415): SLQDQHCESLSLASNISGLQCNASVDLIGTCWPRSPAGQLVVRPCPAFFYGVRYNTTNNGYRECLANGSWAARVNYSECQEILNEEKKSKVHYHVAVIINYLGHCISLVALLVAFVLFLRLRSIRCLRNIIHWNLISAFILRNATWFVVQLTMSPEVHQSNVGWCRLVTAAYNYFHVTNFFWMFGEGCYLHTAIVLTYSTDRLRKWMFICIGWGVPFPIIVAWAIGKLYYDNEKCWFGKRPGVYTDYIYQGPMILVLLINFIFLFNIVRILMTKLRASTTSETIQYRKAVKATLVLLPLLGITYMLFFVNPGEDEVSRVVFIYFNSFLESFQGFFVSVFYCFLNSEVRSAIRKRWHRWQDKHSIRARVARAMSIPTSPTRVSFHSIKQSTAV
Procedure, shortened: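 cAMP readout in CRF1R-overexpressing CHO-K1 cells (clone 2), run as for the TeloHAEC assay at 4000 cells/well final. Cells came from cryopreserved banks. Sauvagine at 100 nM defined 100% activation.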

EC50 [1] [nM]	Emax (% I) [2] [% I]	EC50 ([2]; cAMP) [nM]	Structure (SMILES)
0.3	53		CC[C@H](C)[C@H](NC(C)=O)C(=O)N[C@H](C(=O)N[C@@H](CC(C)C)C(=O)N[C@@H](CO)C(=O)N[C@@H](CC(C)C)C(=O)N[C@@H](CC(=O)O)C(=O)N[C@@H](C(=O)N1CCC[C@H]1C(=O)N[C@H](C(=O)N[C@@H](C)C(=O)N[C@@H](CC(C)C)C(=O)N[C@@H](CCCCNC(=O)CC[C@H](NC(=O)CCCCCCCCCCCCCCC(=O)O)C(=O)O)C(=O)N[C@@H](CCCCN)C(=O)N[C@H](C(=O)N[C@@H](CC(C)C)C(=O)N[C@@H](CC(C)C)C(=O)N[C@@H](CCC(=O)O)C(=O)N[C@@H](CCC(N)=O)C(=O)N[C@@H](CCC(=O)O)C(=O)N[C@@H](CCCCN)C(=O)N[C@@H](CCC(N)=O)C(=O)N[C@@H](CCCCN)C(=O)N[C@@H](CCCCN)C(=O)N[C@@H](CCC(N)=O)C(=O)N[C@@H](CCCNC(=N)N)C(=O)N[C@@H](CCC(=O)O)C(=O)N[C@@H](CCC(N)=O)C(=O)N[C@@H](C)C(=O)N[C@@H](CCC(=O)O)C(=O)N[C@H](C(=O)N[C@@H](CC(N)=O)C(=O)NC(C)(C)C(=O)N[C@@H](CCC(N)=O)C(=O)N[C@H](C(=O)N[C@@H](CC(C)C)C(=O)N[C@@H](C)C(=O)N[C@@H](CCC(N)=O)C(=O)N[C@H](C(N)=O)C(C)C)[C@@H](C)CC)[C@@H](C)O)[C@@H](C)CC)[C@@H](C)CC)C(C)C)C(C)C [compound 163] (Ac-IVLSLD[dV]PIALK([γGlu-C16 diacid])KILLEQEKQKKQREQAETN[Aib]QILAQV-NH2)
2.43	14	> 250	CC[C@H](C)[C@H](NC(C)=O)C(=O)N[C@H](C(=O)N[C@@H](CC(C)C)C(=O)N[C@@H](CO)C(=O)N[C@@H](CC(C)C)C(=O)N[C@@H](CC(=O)O)C(=O)N[C@@H](C(=O)N1CCC[C@H]1C(=O)N[C@H](C(=O)N[C@@H](CCCCN)C(=O)N[C@@H](CC(C)C)C(=O)N[C@@H](CCCCNC(=O)CC[C@H](NC(=O)CCCCCCCCCCCCCCC(=O)O)C(=O)O)C(=O)N[C@@H](C)C(=O)N[C@H](C(=O)N[C@@H](CC(C)C)C(=O)N[C@@H](CC(C)C)C(=O)N[C@@H](CCC(=O)O)C(=O)N[C@@H](CCC(N)=O)C(=O)N[C@@H](CCC(=O)O)C(=O)N[C@@H](CCCCN)C(=O)N[C@@H](CCC(N)=O)C(=O)N[C@@H](CCCCN)C(=O)N[C@@H](CCCCN)C(=O)N[C@@H](CCC(N)=O)C(=O)N[C@@H](CCCNC(=N)N)C(=O)N[C@@H](CCC(=O)O)C(=O)N[C@@H](CCC(N)=O)C(=O)N[C@@H](C)C(=O)N[C@@H](CCC(=O)O)C(=O)N[C@H](C(=O)N[C@@H](CC(N)=O)C(=O)NC(C)(C)C(=O)N[C@@H](CCC(N)=O)C(=O)N[C@H](C(=O)N[C@@H](CC(C)C)C(=O)N[C@@H](C)C(=O)N[C@@H](CCC(N)=O)C(=O)N[C@H](C(N)=O)C(C)C)[C@@H](C)CC)[C@@H](C)O)[C@@H](C)CC)[C@@H](C)CC)C(C)C)C(C)C [compound 164] (Ac-IVLSLD[dV]PIKLK([γGlu-C16 diacid])AILLEQEKQKKQREQAETN[Aib]QILAQV-NH2)

Source: patent publication US20260001928A1 (CORTERIA PHARMACEUTICALS, priority 2022, published 2026)
